Experimental data reported in patent US20080287396A1, “Phosphonated Fluoroquinolones, Antibacterial Analogs Thereof, and Methods for the Prevention and Treatment of Bone and Joint Infections” (TARGANTA THERAPEUTICA INC., priority 2005, published 2008).
“Also recorded” adds a separate entry of the source.

Assays:
[1] = Regeneration of drug from bone powder-bound prodrug; assay type: in vitro ADME; conditions: PBS vs serum
[2] = Bone powder binding, fluorometric detection; conditions: 1 mg/ml compound, bone meal powder 10 mg/ml in PBS, 37° C., 1 h
Summary of the method: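 LC/MS method: 100 μM compound in 0.1 M Tris-HCl pH 7, 0.15 M NaCl shaken 10 min with or without ground rat tibia, centrifuged, unbound compound measured in supernatant. Fluorometric method: 1 mg/ml compound in 10 mg/ml bone meal/PBS, 1 h at 37 °C, pellet washed. Supernatant fluoroquinolone read at 280/465 nm; bound amount taken as input minus recovered.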

S. aureus ATCC 13709 = test: Prophylactic model of bone infection in rats; assay type: in vivo, rat; conditions: for prophylactic effect in rat model of bone infection, in words: Table 4 and FIGS. 6-8, doses as in Table 4
Summary of the method: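 Female CD rats (n=5/group) given intra-tibial 5% sodium morrhuate then S. aureus (ca. 5×10^5 CFU/rat), hole sealed with dental cement. Prodrugs given as single IV bolus in 0.9% saline at various times before infection; parent at molar equivalent dose. Tibiae harvested 24 h postinfection; Log CFU/g bone, detection limit 2 Log CFU/g.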

Structure (SMILES)	effect of the medium (presence or absence of serum) on regeneration rate [1]	Binding to bone (%) Fluorescence [2] [%]	bacterial titer compared with untreated group (S. aureus ATCC 13709; 17.3 mg/Kg IV 48 h prior to infection (FIG. 8))	Measured bacterial titer (Log CFU/g of bone) Test compound (S. aureus ATCC 13709; 20 mg/kg IV, 3 days prior to infection)	prophylactic effect in rat model of bone infection, in words (S. aureus ATCC 13709)	bacterial titer compared with untreated group (S. aureus ATCC 13709; 15.8 mg/kg IV 5, 10, 15 and 20 days before infection (FIG. 6))	Measured bacterial titer (Log CFU/g of bone) Test compound (S. aureus ATCC 13709; 15.8 mg/kg IV, 2 days prior to infection, 24 h postinfection)	bacterial titer compared with untreated group (S. aureus ATCC 13709; 32 mg/kg IV 7, 14, 21 and 28 days prior to infection (FIG. 7))
COc1c(N2CCNC(C)C2)c(F)cc2c(=O)c(C(=O)OCC(=O)NC(P(=O)(O)O)P(=O)(O)O)cn(C3CC3)c12 (centres unmarked) [Compound 54, (1,1-Bisphosphonomethylcarbamoyl)methyl 7-(3-methylpiperazin-1-yl)-1-cyclopropyl-6-fluoro-1,4-dihydro-8-methoxy-4-oxoquinoline-3-carboxylate]	rate deceleration	91	significant (p-value ≦0.0002) decrease in bacterial titer; also recorded: nearly sterile bone	2.96 ± 0.69 Log CFU/g of bone	efficient prophylactic effect			
COc1c(N2C[C@@H]3CCCN[C@@H]3C2)c(F)cc2c(=O)c(C(=O)OCC(=O)NC(P(=O)(O)O)P(=O)(O)O)cn(C3CC3)c12 [Compound 52, (1,1-Bisphosphonomethylcarbamoyl)methyl 1-cyclopropyl-6-fluoro-1,4-dihydro-7-((4aS,7aS)-octahydropyrrolo[3,4-b]pyridin-6-yl)-8-methoxy-4-oxoquinoline-3-carboxylate]	fairly similar rates	98.7			efficient prophylactic effect	significant (p<0.05) decrease in bacterial titer	2.29 ± 0.30 Log CFU/g of bone	significant decrease in bacterial titer
